Laboratory results as given in the kinase profiling compilation of Christmann-Franck et al. (2016).
Several values for one entry are separate records, joined by “and”; a condition that tells them apart may be missing. Equal entries are not always repeated.

How the values were obtained:
Assay in all cases: radiometric filter-binding kinase assay, Kinase HotSpot
Conditions in all cases: compound 0.5 µM; ATP 10 µM
SRMS (human) = SRMS (human) (UniProt Q9H3Y6)
RIPK2 (human) = RIPK2 (human) (UniProt O43353)
STK3 (human) = STK3 (human) (UniProt Q13188)
PAK2 (human) = PAK2 (human) (UniProt Q13177)
CAMKK2 (human) = CAMKK2 (human) (UniProt Q96RR4)
FGFR2 (human) = FGFR2 (human) (UniProt P21802)
Sequence of FGFR2 (human) (P21802 whole entry, looked up): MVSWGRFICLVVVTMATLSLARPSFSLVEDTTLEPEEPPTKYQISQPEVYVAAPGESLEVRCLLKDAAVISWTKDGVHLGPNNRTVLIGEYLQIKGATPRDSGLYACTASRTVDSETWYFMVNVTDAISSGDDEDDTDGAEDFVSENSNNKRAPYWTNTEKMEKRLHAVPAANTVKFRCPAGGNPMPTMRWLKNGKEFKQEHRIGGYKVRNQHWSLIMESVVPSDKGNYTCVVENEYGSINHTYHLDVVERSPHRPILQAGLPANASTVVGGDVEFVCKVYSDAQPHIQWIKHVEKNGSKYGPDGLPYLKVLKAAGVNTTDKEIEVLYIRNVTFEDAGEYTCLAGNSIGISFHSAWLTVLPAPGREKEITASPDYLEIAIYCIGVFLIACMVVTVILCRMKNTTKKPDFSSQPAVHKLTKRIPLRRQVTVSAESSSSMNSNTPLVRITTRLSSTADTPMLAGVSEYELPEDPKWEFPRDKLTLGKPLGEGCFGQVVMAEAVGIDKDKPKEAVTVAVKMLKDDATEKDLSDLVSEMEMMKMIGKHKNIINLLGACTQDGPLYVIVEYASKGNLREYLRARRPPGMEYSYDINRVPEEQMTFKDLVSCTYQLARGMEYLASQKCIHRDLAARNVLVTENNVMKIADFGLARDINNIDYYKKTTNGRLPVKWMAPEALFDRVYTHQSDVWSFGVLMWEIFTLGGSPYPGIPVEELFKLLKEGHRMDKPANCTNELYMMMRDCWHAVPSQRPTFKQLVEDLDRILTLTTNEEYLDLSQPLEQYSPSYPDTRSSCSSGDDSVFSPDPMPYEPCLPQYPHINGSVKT

TNK2 (human) = TNK2 (human) (UniProt Q07912)
ACVR1B (human) = ACVR1B (human) (UniProt P36896)
Sequence of ACVR1B (human) (P36896 whole entry, looked up): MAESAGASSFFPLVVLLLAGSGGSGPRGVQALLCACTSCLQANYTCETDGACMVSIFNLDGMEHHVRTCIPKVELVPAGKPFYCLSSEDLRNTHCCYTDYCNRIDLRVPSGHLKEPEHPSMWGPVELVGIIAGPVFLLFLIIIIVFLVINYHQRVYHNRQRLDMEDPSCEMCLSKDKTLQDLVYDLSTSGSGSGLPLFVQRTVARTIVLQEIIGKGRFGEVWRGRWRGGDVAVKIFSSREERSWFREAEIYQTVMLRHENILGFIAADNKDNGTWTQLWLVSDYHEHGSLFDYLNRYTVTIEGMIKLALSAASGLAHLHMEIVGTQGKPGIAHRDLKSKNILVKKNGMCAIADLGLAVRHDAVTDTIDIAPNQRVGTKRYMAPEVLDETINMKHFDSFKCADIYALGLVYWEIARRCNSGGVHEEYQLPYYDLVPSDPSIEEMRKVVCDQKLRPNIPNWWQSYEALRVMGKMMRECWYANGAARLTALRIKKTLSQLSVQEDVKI

MAP3K9 (human) = MAP3K9 (human) (UniProt P80192)
SRPK1 (human) = SRPK1 (human) (UniProt Q96SB4)
Sequence of SRPK1 (human) (Q96SB4 whole entry, looked up): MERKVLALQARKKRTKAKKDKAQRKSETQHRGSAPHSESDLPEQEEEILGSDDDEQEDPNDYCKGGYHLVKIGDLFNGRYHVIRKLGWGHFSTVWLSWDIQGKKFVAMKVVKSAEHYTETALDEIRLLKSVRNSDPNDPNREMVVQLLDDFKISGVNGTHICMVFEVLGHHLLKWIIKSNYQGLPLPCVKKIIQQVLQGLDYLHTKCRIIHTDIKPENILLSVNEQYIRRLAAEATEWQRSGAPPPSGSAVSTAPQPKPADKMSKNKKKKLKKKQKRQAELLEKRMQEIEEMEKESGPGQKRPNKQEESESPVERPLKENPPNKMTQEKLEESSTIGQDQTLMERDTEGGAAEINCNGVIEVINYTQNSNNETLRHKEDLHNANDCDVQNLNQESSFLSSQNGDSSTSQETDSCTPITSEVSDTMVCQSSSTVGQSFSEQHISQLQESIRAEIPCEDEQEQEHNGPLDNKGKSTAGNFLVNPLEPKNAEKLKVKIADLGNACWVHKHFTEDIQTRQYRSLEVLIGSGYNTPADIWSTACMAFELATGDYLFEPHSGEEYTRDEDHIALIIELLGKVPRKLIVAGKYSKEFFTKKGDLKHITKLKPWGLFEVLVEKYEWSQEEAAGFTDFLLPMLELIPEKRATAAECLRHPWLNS

PRKG2 (human) = PRKG2 (human) (UniProt Q13237)
CDK6 CCND3 (human) = CDK6 CCND3 (human) (UniProt P30281+Q00534)
CDK1 CCNA2 (human) = CDK1 CCNA2 (human) (UniProt P06493+P20248)
MATK (human) = MATK (human) (UniProt P42679)
MARK4 (human) = MARK4 (human) (UniProt Q96L34)
Sequence of MARK4 (human) (Q96L34 whole entry, looked up): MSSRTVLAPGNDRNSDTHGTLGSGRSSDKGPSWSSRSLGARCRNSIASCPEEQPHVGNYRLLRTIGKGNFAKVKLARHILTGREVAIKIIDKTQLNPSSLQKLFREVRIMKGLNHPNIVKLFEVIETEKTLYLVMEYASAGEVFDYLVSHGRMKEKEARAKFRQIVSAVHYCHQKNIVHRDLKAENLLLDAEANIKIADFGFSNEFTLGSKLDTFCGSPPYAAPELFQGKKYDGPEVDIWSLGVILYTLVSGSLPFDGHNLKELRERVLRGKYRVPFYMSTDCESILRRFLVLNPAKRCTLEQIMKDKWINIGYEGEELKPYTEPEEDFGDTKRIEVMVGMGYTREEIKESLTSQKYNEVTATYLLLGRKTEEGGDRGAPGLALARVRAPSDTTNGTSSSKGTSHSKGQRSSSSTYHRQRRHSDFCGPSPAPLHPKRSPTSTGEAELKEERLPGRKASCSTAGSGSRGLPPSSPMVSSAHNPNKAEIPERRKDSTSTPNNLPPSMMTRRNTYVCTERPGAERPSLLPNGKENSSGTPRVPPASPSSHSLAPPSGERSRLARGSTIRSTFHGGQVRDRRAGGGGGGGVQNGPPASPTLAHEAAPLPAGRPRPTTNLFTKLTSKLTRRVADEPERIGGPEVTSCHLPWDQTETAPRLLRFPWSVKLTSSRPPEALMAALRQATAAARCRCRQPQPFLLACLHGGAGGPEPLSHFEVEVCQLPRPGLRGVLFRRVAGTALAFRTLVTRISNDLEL

MAPK12 (human) = MAPK12 (human) (UniProt P53778)
Sequence of MAPK12 (human) (P53778 whole entry, looked up): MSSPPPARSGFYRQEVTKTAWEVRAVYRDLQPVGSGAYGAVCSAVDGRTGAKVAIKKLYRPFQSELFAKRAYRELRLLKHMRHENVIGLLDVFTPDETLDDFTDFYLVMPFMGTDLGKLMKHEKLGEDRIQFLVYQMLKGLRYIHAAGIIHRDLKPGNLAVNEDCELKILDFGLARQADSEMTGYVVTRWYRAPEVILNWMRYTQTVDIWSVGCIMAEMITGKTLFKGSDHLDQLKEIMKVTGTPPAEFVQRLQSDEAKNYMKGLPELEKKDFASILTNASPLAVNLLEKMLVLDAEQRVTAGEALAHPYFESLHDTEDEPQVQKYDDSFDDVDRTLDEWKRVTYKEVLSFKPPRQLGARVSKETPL

PTK2B (human) = PTK2B (human) (UniProt Q14289)
CSNK1G1 (human) = CSNK1G1 (human) (UniProt Q9HCP0)
MAP2K1 (human) = MAP2K1 (human) (UniProt Q02750)
TAOK3 (human) = TAOK3 (human) (UniProt Q9H2K8)
BMX (human) = BMX (human) (UniProt P51813)
[1] = target: JAK1 JH1 catalytic (human) (UniProt P23458)
LIMK1 (human) = LIMK1 (human) (UniProt P53667)
MYLK (human) = MYLK (human) (UniProt Q15746)
SGK3 (human) = SGK3 (human) (UniProt Q96BR1)
AKT3 (human) = AKT3 (human) (UniProt Q9Y243)
CSK (human) = CSK (human) (UniProt P41240)
FGFR3 (human) = FGFR3 (human) (UniProt P22607)
FGFR4 (human) = FGFR4 (human) (UniProt P22455)
MAPK11 (human) = MAPK11 (human) (UniProt Q15759)
ERBB4 (human) = ERBB4 (human) (UniProt Q15303)
MAPK8 (human) = MAPK8 (human) (UniProt P45983)
RPS6KA3 KD1 KD2 (human) = RPS6KA3 KD1 KD2 (human) (UniProt P51812)
ERBB2 (human) = ERBB2 (human) (UniProt P04626)
CSNK1A1 (human) = CSNK1A1 (human) (UniProt P48729)
PLK3 (human) = PLK3 (human) (UniProt Q9H4B4)
Sequence of PLK3 (human) (Q9H4B4 whole entry, looked up): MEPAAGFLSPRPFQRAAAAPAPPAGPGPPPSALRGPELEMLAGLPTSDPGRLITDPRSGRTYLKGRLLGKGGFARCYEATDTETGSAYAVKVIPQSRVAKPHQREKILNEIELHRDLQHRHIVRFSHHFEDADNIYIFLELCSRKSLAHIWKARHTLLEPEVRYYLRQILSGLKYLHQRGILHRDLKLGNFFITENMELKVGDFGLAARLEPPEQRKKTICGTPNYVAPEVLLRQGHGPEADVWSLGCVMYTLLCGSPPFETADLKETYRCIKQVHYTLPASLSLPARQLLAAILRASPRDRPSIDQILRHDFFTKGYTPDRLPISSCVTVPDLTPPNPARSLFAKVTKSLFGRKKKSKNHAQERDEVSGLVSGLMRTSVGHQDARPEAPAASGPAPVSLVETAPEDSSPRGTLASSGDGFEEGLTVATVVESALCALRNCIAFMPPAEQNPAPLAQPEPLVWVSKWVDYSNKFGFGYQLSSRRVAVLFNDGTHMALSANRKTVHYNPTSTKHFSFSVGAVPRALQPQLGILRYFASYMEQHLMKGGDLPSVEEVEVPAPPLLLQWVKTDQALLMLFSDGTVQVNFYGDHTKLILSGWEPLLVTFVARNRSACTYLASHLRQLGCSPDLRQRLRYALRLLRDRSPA

SRC (human) = SRC (human) (UniProt P12931)
Sequence of SRC (human) (P12931 whole entry, looked up): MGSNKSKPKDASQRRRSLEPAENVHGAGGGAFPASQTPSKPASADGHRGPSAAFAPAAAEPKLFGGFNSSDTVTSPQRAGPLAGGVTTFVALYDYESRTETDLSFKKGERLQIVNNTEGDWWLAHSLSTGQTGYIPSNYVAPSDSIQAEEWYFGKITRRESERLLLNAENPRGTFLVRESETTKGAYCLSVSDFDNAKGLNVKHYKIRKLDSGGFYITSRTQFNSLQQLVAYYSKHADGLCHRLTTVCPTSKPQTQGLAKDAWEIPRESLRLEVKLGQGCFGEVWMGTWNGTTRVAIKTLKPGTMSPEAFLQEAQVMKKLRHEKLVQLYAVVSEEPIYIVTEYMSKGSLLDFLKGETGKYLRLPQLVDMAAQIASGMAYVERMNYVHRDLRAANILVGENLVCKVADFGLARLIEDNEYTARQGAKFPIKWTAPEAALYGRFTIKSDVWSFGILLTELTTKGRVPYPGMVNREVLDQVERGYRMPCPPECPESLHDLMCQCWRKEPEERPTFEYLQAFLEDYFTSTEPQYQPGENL

PIM1 (human) = PIM1 (human) (UniProt P11309)
TGFBR1 (human) = TGFBR1 (human) (UniProt P36897)
Sequence of TGFBR1 (human) (P36897 whole entry, looked up): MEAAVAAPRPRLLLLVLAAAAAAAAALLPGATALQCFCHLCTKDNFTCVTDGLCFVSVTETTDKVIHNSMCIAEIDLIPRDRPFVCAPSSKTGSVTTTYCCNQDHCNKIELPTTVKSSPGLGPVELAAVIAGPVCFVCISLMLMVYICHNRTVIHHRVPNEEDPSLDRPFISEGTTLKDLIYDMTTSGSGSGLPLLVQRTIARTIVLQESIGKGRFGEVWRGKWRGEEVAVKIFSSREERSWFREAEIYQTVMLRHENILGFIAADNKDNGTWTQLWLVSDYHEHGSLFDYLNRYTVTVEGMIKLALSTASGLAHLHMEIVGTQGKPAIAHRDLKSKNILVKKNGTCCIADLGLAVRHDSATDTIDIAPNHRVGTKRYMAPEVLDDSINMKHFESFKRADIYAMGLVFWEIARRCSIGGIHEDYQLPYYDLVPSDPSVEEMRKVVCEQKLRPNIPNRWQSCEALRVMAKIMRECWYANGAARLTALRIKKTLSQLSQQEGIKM

PRKD2 (human) = PRKD2 (human) (UniProt Q9BZL6)
RPS6KA5 KD2 (human) = RPS6KA5 KD2 (human) (UniProt O75582)
PRKG1 (human) = PRKG1 (human) (UniProt Q13976)

O=C1NC(=O)C(c2cn(CCCO)c3ncccc23)=C1c1cnccn1
residual activity (SRMS (human)): 95.9% | residual activity (RIPK2 (human)): 90.9% | residual activity (STK3 (human)): 74.4% | residual activity (PAK2 (human)): 105% | residual activity (CAMKK2 (human)): 115% | residual activity (FGFR2 (human)): 103% | residual activity (TNK2 (human)): 90.7% | residual activity (ACVR1B (human)): 100% | residual activity (MAP3K9 (human)): 85.5% | residual activity (SRPK1 (human)): 98% | residual activity (PRKG2 (human)): 118% | residual activity (CDK6 CCND3 (human)): 84.4% | residual activity (CDK1 CCNA2 (human)): 91.8% | residual activity (MATK (human)): 95.5% | residual activity (MARK4 (human)): 93.9% | residual activity (MAPK12 (human)): 86.8% | residual activity (PTK2B (human)): 94% | residual activity (CSNK1G1 (human)): 101% | residual activity (MAP2K1 (human)): 106% | residual activity (TAOK3 (human)): 88.2% | residual activity (BMX (human)): 97.8% | residual activity [1]: 117% | residual activity (LIMK1 (human)): 96.4% | residual activity (MYLK (human)): 74% | residual activity (SGK3 (human)): 124% | residual activity (AKT3 (human)): 101% | residual activity (CSK (human)): 86.9% | residual activity (FGFR3 (human)): 78.7% | residual activity (FGFR4 (human)): 91.5% | residual activity (MAPK11 (human)): 105% | residual activity (ERBB4 (human)): 115% | residual activity (MAPK8 (human)): 99.6% | residual activity (RPS6KA3 KD1 KD2 (human)): 91.3% | residual activity (ERBB2 (human)): 106% | residual activity (CSNK1A1 (human)): 67% | residual activity (PLK3 (human)): 91.1% | residual activity (SRC (human)): 78.9% | residual activity (PIM1 (human)): 43.9% | residual activity (TGFBR1 (human)): 98.5% | residual activity (PRKD2 (human)): 118% | residual activity (RPS6KA5 KD2 (human)): 73.9%

Cn1sc(=O)n(Cc2ccccc2)c1=O
residual activity (SRMS (human)): 96.2% | residual activity (RIPK2 (human)): 85.4% | residual activity (STK3 (human)): 93.2% | residual activity (PAK2 (human)): 104% | residual activity (CAMKK2 (human)): 95.2% | residual activity (TNK2 (human)): 101% | residual activity (ACVR1B (human)): 103% | residual activity (MAP3K9 (human)): 99.4% | residual activity (SRPK1 (human)): 89.8% | residual activity (PRKG2 (human)): 108% | residual activity (CDK6 CCND3 (human)): 100% | residual activity (CDK1 CCNA2 (human)): 104% | residual activity (MATK (human)): 95.3% | residual activity (MARK4 (human)): 85.1% | residual activity (PRKG1 (human)): 93.2% and 95.9% | residual activity (MAPK12 (human)): 102% | residual activity (PTK2B (human)): 91% | residual activity (CSNK1G1 (human)): 95.2% | residual activity (MAP2K1 (human)): 83.8% | residual activity (TAOK3 (human)): 101% | residual activity (BMX (human)): 91.6% | residual activity [1]: 103% | residual activity (LIMK1 (human)): 101% | residual activity (MYLK (human)): 94.5% | residual activity (SGK3 (human)): 102% | residual activity (AKT3 (human)): 96.6% | residual activity (CSK (human)): 101% | residual activity (FGFR3 (human)): 100% | residual activity (FGFR4 (human)): 97.2% | residual activity (MAPK11 (human)): 97.2% | residual activity (ERBB4 (human)): 104% | residual activity (MAPK8 (human)): 85.5% | residual activity (RPS6KA3 KD1 KD2 (human)): 97.5% | residual activity (ERBB2 (human)): 106% | residual activity (CSNK1A1 (human)): 99.5% | residual activity (PLK3 (human)): 99.1% | residual activity (SRC (human)): 95% | residual activity (PIM1 (human)): 93% | residual activity (TGFBR1 (human)): 97.2% | residual activity (PRKD2 (human)): 95.1% | residual activity (RPS6KA5 KD2 (human)): 108%

CCN(CC)CCCCN1c2ccccc2Oc2ccc(Cl)cc21
residual activity (SRMS (human)): 105% | residual activity (RIPK2 (human)): 89.7% | residual activity (STK3 (human)): 106% | residual activity (PAK2 (human)): 98.6% | residual activity (CAMKK2 (human)): 105% | residual activity (FGFR2 (human)): 95.7% | residual activity (TNK2 (human)): 94.7% | residual activity (ACVR1B (human)): 105% | residual activity (MAP3K9 (human)): 95.7% | residual activity (SRPK1 (human)): 97.2% | residual activity (PRKG2 (human)): 94.4% | residual activity (CDK6 CCND3 (human)): 102% | residual activity (CDK1 CCNA2 (human)): 99.3% | residual activity (MATK (human)): 99.9% | residual activity (MARK4 (human)): 97.2% | residual activity (PRKG1 (human)): 91.3% and 98.8% | residual activity (MAPK12 (human)): 97.4% | residual activity (PTK2B (human)): 99.6% | residual activity (CSNK1G1 (human)): 104% | residual activity (MAP2K1 (human)): 98.1% | residual activity (TAOK3 (human)): 110% | residual activity (BMX (human)): 104% | residual activity [1]: 105% | residual activity (LIMK1 (human)): 94.3% | residual activity (MYLK (human)): 97% | residual activity (SGK3 (human)): 101% | residual activity (AKT3 (human)): 103% | residual activity (CSK (human)): 99.1% | residual activity (FGFR3 (human)): 91.8% | residual activity (FGFR4 (human)): 92.6% | residual activity (MAPK11 (human)): 103% | residual activity (ERBB4 (human)): 102% | residual activity (MAPK8 (human)): 89.7% | residual activity (RPS6KA3 KD1 KD2 (human)): 98.6% | residual activity (ERBB2 (human)): 96.6% | residual activity (CSNK1A1 (human)): 96.1% | residual activity (PLK3 (human)): 102% | residual activity (SRC (human)): 106% | residual activity (TGFBR1 (human)): 97.2% | residual activity (PRKD2 (human)): 105% | residual activity (RPS6KA5 KD2 (human)): 107%

CC(C)c1nn(-c2c(Cl)cccc2Cl)c2nc(Cc3ccc(OCCO)cc3)nc(O)c12
residual activity (SRMS (human)): 91.5% | residual activity (RIPK2 (human)): 89.3% | residual activity (STK3 (human)): 93.5% | residual activity (PAK2 (human)): 95.6% | residual activity (CAMKK2 (human)): 90.9% | residual activity (FGFR2 (human)): 97.5% | residual activity (TNK2 (human)): 98.9% | residual activity (ACVR1B (human)): 109% | residual activity (MAP3K9 (human)): 95.7% | residual activity (SRPK1 (human)): 97.4% | residual activity (PRKG2 (human)): 61.6% | residual activity (CDK6 CCND3 (human)): 46.6% | residual activity (CDK1 CCNA2 (human)): 7.71% | residual activity (MATK (human)): 91.1% | residual activity (MARK4 (human)): 99.5% | residual activity (PRKG1 (human)): 92.3% and 99% | residual activity (MAPK12 (human)): 103% | residual activity (PTK2B (human)): 96.1% | residual activity (CSNK1G1 (human)): 101% | residual activity (MAP2K1 (human)): 99.7% | residual activity (TAOK3 (human)): 91.3% | residual activity (BMX (human)): 104% | residual activity [1]: 101% | residual activity (LIMK1 (human)): 107% | residual activity (MYLK (human)): 98.3% | residual activity (SGK3 (human)): 92.6% | residual activity (CSK (human)): 106% | residual activity (FGFR3 (human)): 97% | residual activity (FGFR4 (human)): 91.5% | residual activity (MAPK11 (human)): 81.8% | residual activity (ERBB4 (human)): 101% | residual activity (MAPK8 (human)): 95.4% | residual activity (RPS6KA3 KD1 KD2 (human)): 88.4% | residual activity (ERBB2 (human)): 101% | residual activity (CSNK1A1 (human)): 99% | residual activity (PLK3 (human)): 99.1% | residual activity (SRC (human)): 86.7% | residual activity (PIM1 (human)): 99% | residual activity (TGFBR1 (human)): 98% | residual activity (PRKD2 (human)): 88.4% | residual activity (RPS6KA5 KD2 (human)): 85.6%

Nc1nnc2[nH]c3ccccc3nc1-2
residual activity (SRMS (human)): 88.5% | residual activity (RIPK2 (human)): 81.1% | residual activity (STK3 (human)): 88.9% | residual activity (PAK2 (human)): 104% | residual activity (CAMKK2 (human)): 98.8% | residual activity (FGFR2 (human)): 98.1% | residual activity (TNK2 (human)): 101% | residual activity (ACVR1B (human)): 99.9% | residual activity (MAP3K9 (human)): 97.7% | residual activity (SRPK1 (human)): 101% | residual activity (PRKG2 (human)): 66.7% | residual activity (CDK6 CCND3 (human)): 105% | residual activity (CDK1 CCNA2 (human)): 95.3% | residual activity (MATK (human)): 91.9% | residual activity (MARK4 (human)): 99.8% | residual activity (PRKG1 (human)): 93% and 97.7% | residual activity (MAPK12 (human)): 100% | residual activity (PTK2B (human)): 92% | residual activity (CSNK1G1 (human)): 99% | residual activity (MAP2K1 (human)): 98.8% | residual activity (TAOK3 (human)): 97.1% | residual activity (BMX (human)): 99.5% | residual activity [1]: 99.8% | residual activity (LIMK1 (human)): 105% | residual activity (MYLK (human)): 93.6% | residual activity (SGK3 (human)): 96.6% | residual activity (AKT3 (human)): 95.3% | residual activity (CSK (human)): 100% | residual activity (FGFR3 (human)): 96.5% | residual activity (FGFR4 (human)): 94.9% | residual activity (MAPK11 (human)): 93.8% | residual activity (MAPK8 (human)): 89.6% | residual activity (RPS6KA3 KD1 KD2 (human)): 88% | residual activity (ERBB2 (human)): 95.2% | residual activity (CSNK1A1 (human)): 101% | residual activity (PLK3 (human)): 96.3% | residual activity (PIM1 (human)): 94% | residual activity (TGFBR1 (human)): 98.1% | residual activity (PRKD2 (human)): 94.5% | residual activity (RPS6KA5 KD2 (human)): 92.4%
